Test results as given in PubChem BioAssay (NCI).
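Growth conditions: 96-well plates. Treatment: test compound, 48 hours, 5 concentrations. Analysis: linear interpolation between bracketing concentrations; unreached endpoints set to highest concentration. Definition used: TGI = concentration required for complete inhibition of growth.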

How the values were obtained:
Assay in all cases: DTP human tumour cell line panel, 48 h
[1] = system: 786-0 renal
[2] = system: A498 renal
[3] = system: A549 NSCLC
[4] = system: ACHN renal
[5] = system: CAKI-1 renal
[6] = system: CCRF-CEM leukemia
[7] = system: COLO 205 colon
[8] = system: DU-145 prostate
[9] = system: EKVX NSCLC
[10] = system: HCC-2998 colon
[11] = system: HCT-116 colon
[12] = system: HCT-15 colon
[13] = system: HOP-62 NSCLC
[14] = system: HOP-92 NSCLC
[15] = system: HS 578T breast
[16] = system: K-562 leukemia
[17] = system: KM12 colon
[18] = system: LOX IMVI melanoma
[19] = system: M14 melanoma
[20] = system: MCF7 breast
[21] = system: MDA-MB-231 breast
[22] = system: MDA-MB-435
[23] = system: MDA-N
[24] = system: MOLT-4 leukemia
[25] = system: NCI-H226 lung
[26] = system: NCI/ADR-RES ovarian
[27] = system: OVCAR-3 ovarian
[28] = system: OVCAR-4 ovarian
[29] = system: OVCAR-5 ovarian
[30] = system: PC-3 prostate
[31] = system: RPMI-8226 leukemia
[32] = system: RXF 393 renal
[33] = system: SF-268 CNS
[34] = system: SF-295 CNS
[35] = system: SF-539 CNS
[36] = system: SK-MEL-2 melanoma
[37] = system: SK-MEL-28 melanoma
[38] = system: SK-MEL-5 melanoma
[39] = system: SK-OV-3 ovarian
[40] = system: SN12C renal
[41] = system: SNB-19 CNS
[42] = system: SNB-75 CNS
[43] = system: SW-620 colon
[44] = system: T-47D breast
[45] = system: TK-10 renal
[46] = system: U251 CNS
[47] = system: UACC-257 melanoma
[48] = system: UACC-62 melanoma
[49] = system: UO-31 renal
[50] = system: HL-60(TB) leukemia
[51] = system: HT29 colon
[52] = system: IGROV1 ovarian
[53] = system: MALME-3M melanoma
[54] = system: NCI-H23 lung
[55] = system: NCI-H460 lung
[56] = system: NCI-H522 lung
[57] = system: OVCAR-8 ovarian
[58] = system: SR leukemia

Measured: TGI

Cc1cccc(-c2cc(=S)c3cc(N4CCCC4)ccc3[nH]2)c1
> 100 µM: [1] | [2] | [3] | [4] | [5] | [6] | [7] | [8] | [9] | [10] | [11] | [12] | [13] | [14] | [15] | [16] | [17] | [18] | [19] | [20] | [21] | [22] | [23] | [24] | [25] | [26] | [27] | [28] | [29] | [30] | [31] | [32] | [33] | [34] | [35] | [36] | [37] | [38] | [39] | [40] | [41] | [42] | [43] | [44] | [45] | [46] | [47] | [48] | [49]

N/N=C1\CCCc2c1no[n+]2[O-]
> 100 µM: [1] | [2] | [3] | [4] | [5] | [6] | [7] | [8] | [9] | [10] | [11] | [12] | [50] | [13] | [15] | [51] | [52] | [16] | [17] | [18] | [19] | [53] | [20] | [21] | [22] | [23] | [24] | [25] | [54] | [55] | [56] | [26] | [27] | [28] | [29] | [57] | [30] | [31] | [32] | [33] | [34] | [35] | [36] | [37] | [38] | [39] | [40] | [41] | [42] | [58] | [43] | [45] | [46] | [47] | [48] | [49]
